For one series, the target named is CB2. Set-up: method as in PMID 11597467, PMID 23623258, PMID 23395112, PMID 21702498, PMID 17004710. As to conditions: Figure 1; cited from earlier work.
Series [1] concerns the target T1, human cannabinoid receptor type II (CB2R) (Homo sapiens, UniProt P34972).
T1 construct: host or cells: CHO cells
The series can be described thus: Human CB2R cAMP agonist cellular functional assay (Eurofins Cerep). Type of series: cell-based. Particulars: for % CB2R Agonist Response: 10 µM, CHO cells expressing hCB2R, percentage relative to control (100 nM WIN55212-2), rounded mean of two assays; for pEC50: EC50, intracellular cAMP, CHO-hCB2R. Here is the method: Functional evaluation was carried out by Eurofins Cerep service assay: CB2 Human Cannabinoid GPCR Cell Based Agonist cAMP Assay. CHO cells stably expressing hCB2R (Eurofins Cerep) are suspended in HBSS buffer (Invitrogen) complemented with 20 mM HEPES (pH 7.4), then distributed in microplates at a density of 7.5 × 10^3 cells/well in the presence of either of the following: HBSS (basal control), the reference agonist at 100 nM (stimulated control) or various concentrations (EC50 determination), or the test compounds. Thereafter, the adenylyl cyclase activator NKH 477 is added at a final concentration of 3 μM. Following 10 min incubation at 37 °C, the cells are lysed, and the fluorescence acceptor (D2-labeled cAMP) and fluorescence donor (anti-cAMP antibody labeled with europium cryptate) are added. After 60 min at room temperature, the fluorescence transfer is measured at λex = 337 nm and λem = 620 and 665 nm using a microplate reader (Envison, Perkin Elmer). The cAMP concentration is determined by dividing the signal measured at 665 nm by that measured at 620 nm (ratio). The results are expressed as a percent of the control response to 100 nM WIN55212-2. The standard reference agonist is WIN 55212-2, which is tested in each experiment at several concentrations to generate a concentration-response curve from which its EC50 value is calculated.

Series [2] can be described thus: Neutral red uptake cell viability assay, HL-60. As to conditions: human. The procedure:
(§1) Two different cell lines were used: HepG2 as a model of hepatic tissue; and HL-60 cells as a model of blood cells. Low levels of expression of CBR exists in normal liver however, several pathological conditions have shown high upregulation of hepatic CB2R [28].
(§2) Cell lines were grown in culture media supplemented with 10% fetal bovine serum (FBS), 100 U/mL of penicillin, 100 μg/mL of streptomycin and 1% of non-essential aminoacids. Cells between passage 5 to 10 were used in experiments. Dulbecco’s Modified Eagle Medium (DMEM) was used for HepG2 cells and Roswell Park Memorial Institute (RPMI) was used for HL-60 cells. […] All cellular lines used were provided by Dr. Mario Faúndez, Laboratory of Molecular Pharmacology, Faculty of Chemistry and Pharmacy, Pontificia Universidad Católica de Chile.
(§3) The effect of compounds in cell viability was determined by Neutral Red uptake assay. Cells were seeded in 100 μL of media at a density of 10^4 cells/well in 96-well microtiter plates. Solutions of compounds were previously prepared in DMSO and 1 μL of the corresponding solution was added to each well. The final volume of each well was adjusted to 200 μL. After 72 h of incubation, culture media was removed and 100 μL of 10 μg/mL neutral red solution prepared in culture media was added to each well and incubated for 3 h. Then, media was aspirated, the plate was washed three times with PBS 1X and 100 μL of neutral red distain solution (50:49:1 ethanol:water:glacial acetic acid) was added. The plate was placed for 15 min in a shaker and fluorescence was measured using Cytation 5 apparatus (Biotek, Winooski, VT, USA) at 530/645 nm excitation/emission wavelengths.

A further series concerns HL-60 cells. Kind of series: Neutral red uptake cell viability assay, HL-60. As to conditions: Homo sapiens, HL-60, 72 h, read-out: IC50 HL-60. Here is the method:
as §1, §2, §3

A further series deals with HepG2 cells. The series can be described thus: Neutral red uptake cell viability assay, HepG2. Particulars: for pIC50: Homo sapiens, HepG2, 72 h, read-out: IC50 HepG2. Here is the method: as §1, §2, §3

The text below walks through data of article PMC8537746, “New Pyridone-Based Derivatives as Cannabinoid Receptor Type 2 Agonists” (International Journal of Molecular Sciences, 2021).

Molecules are shown by their SMILES. pEC50, pIC50, pKi: −log10 of the molar value.

T1 sequence (P34972 whole entry): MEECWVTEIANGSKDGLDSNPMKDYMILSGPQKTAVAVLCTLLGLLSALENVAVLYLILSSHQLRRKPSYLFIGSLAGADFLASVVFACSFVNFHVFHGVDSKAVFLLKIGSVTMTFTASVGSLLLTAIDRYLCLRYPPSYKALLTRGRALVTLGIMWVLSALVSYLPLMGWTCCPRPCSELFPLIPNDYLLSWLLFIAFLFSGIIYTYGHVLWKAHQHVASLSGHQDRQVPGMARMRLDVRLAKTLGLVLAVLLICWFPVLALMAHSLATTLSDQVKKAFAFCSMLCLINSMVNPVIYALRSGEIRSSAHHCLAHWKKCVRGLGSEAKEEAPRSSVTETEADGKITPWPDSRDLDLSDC

For orientation: pKi means the negative decadic logarithm of the Ki, by convention in mol/L. As for `CCOC(=O)CC#N` [Compound 1], the pKi at CB2 was 9.70.

As a reminder, the melting point is the temperature, or range, at which the solid turns liquid. Compound `Cc1cc(C)n(-c2ccc(O)cc2)c(=O)c1C(=O)NC1CCCCCC1` [Compound 8f, N-cycloheptyl-1-(4-hydroxyphenyl)-4,6-dimethyl-2-oxo-1,2-dihydropyridine-3-carboxamide] gave a melting point of 232 to 233 °C. Besides, the “% CB2R Agonist Response” value in series [1] came to 0%.

Compound `Cc1cc(C)n(-c2ccc(O)cc2)c(=O)c1C(=O)Nc1nc2ccccc2[nH]1` [Compound 7f, N-(1H-benzo[d]imidazol-2-yl)-1-(4-hydroxyphenyl)-4,6-dimethyl-2-oxo-1,2-dihydropyridine-3-carboxamide] came in with a melting point of 176 to 178 °C. In addition, the “% CB2R Agonist Response” value in series [1] is 13%.

In the case of `COc1ccc2c(=O)c(C(=O)NC3CCCCC3)cn(Cc3ccc(F)cc3)c2n1` [Compound 4], the negative-log Ki (pKi) on CB2 is 7.96.

In turn, `Cc1ccc(-n2c(C)cc(C)c(C(=O)NC3CCCCCC3)c2=O)cc1` [Compound 8e, N-cycloheptyl-4,6-dimethyl-2-oxo-(4-methylphenyl)-1,2-dihydropyridine-3-carboxamide] showed a melting point of 238 to 240 °C. Besides, the “% CB2R Agonist Response” value in series [1] was determined as 0%.

Turning to `N#CCC(=O)NN` [Compound 2], the pKi on CB2 was 7.85.

Consider `Cc1cc(C)n(-c2ccccc2)c(=O)c1C(=O)Nc1nc2ccccc2o1` [Compound 7c, N-(benzo[d]oxazol-2-yl)-4,6-dimethyl-2-oxo-1-phenyl-1,2-dihydropyridine-3-carboxamide], for which the melting point fell in the range of 228 to 230 °C. In addition, the “% CB2R Agonist Response” value in series [1] is recorded as 13%.

The compound `Cc1ccc(-n2c(C)cc(C)c(C(=O)Nc3nc4ccccc4[nH]3)c2=O)cc1` [Compound 7e, N-(1H-benzo[d]imidazol-2-yl)-4,6-dimethyl-2-oxo-1-(4-methylphenyl)-1,2-dihydropyridine-3-carboxamide] gave a melting point of 198 to 200 °C. Further, the “% CB2R Agonist Response” value in series [1] stood at 0%.

As a reminder, the viability is a read-out of living cells in per cent, often relative to untreated cells. High values mean less harm to the cells, low ones more harm to the cells. The pIC50 is the IC50 on a negative log10 scale, so that one unit is a factor of ten. Broadly, the pEC50 is −log10 of the EC50, conventionally taken in molar units. Higher therefore signals a small EC50. Compound `Cc1ccc(-n2c(C)cc(C)c(C(=O)NC34CC5CC(CC(C5)C3)C4)c2=O)cc1` [Compound 8d, N-(adamantan-1-yl)-4,6-dimethyl-2-oxo-1-(4-methylphenyl)-1,2-dihydropyridine-3-carboxamide] returned a melting point of 154 to 155 °C. In series [2], the viability at 72 h, 200 µM is 10%. In the series with HL-60 cells, the pIC50 is below 4.00. The compound also showed a pEC50 in series [1] of 6.95. The compound further showed a pEC50 in series [1] (n = 3) of 6.96. For the same compound, in the series with HepG2 cells, the pIC50 was below 3.70. In the series on HepG2 cells (concentrations as high as 200 μM, compared to control), the “effect on cell viability in HepG2 cells” value is reported as “did not show significant effect on cell viability”.

For the compound `Cc1cc(C)n(-c2ccc(O)cc2)c(=O)c1C(=O)NC1CCCCC1` [Compound 8g, N-cyclohexyl-1-(4-hydroxyphenyl)-4,6-dimethyl-2-oxo-1,2-dihydropyridine-3-carboxamide], the melting point lay in the range of 139 to 140 °C. The “% CB2R Agonist Response” value in series [1] was found to be 4%.

The compound `Cc1cc(C)n(-c2ccccc2)c(=O)c1C(=O)Nc1nc2ccccc2[nH]1` [Compound 7b, N-(1H-benzo[d]imidazol-2-yl)-4,6-dimethyl-2-oxo-1-phenyl-1,2-dihydropyridine-3-carboxamide] gave a melting point of 177 to 179 °C. In addition, in the series with HL-60 cells, the pIC50 was below 4.00. The “% CB2R Agonist Response” value in series [1] came out at 8%. Further, the negative-log IC50 (pIC50) in the series with HepG2 cells was below 3.70.

For the compound `Cc1cc(C)n(-c2ccccc2)c(=O)c1C(=O)NC12CC3CC(CC(C3)C1)C2` [Compound 8c, N-(adamantan-1-yl)-4,6-dimethyl-2-oxo-1-phenyl-1,2-dihydropyridine-3-carboxamide], the melting point was 164 to 165 °C. Also, the pIC50 in the series on HL-60 cells was below 4.00. For the same compound, the pIC50 with HepG2 cells is below 3.70.

For the compound `Cc1ccc(-n2c(C)cc(C)c(C(=O)Nc3nc4ccccc4o3)c2=O)cc1` [Compound 7d, N-(benzo[d]oxazol-2-yl)-4,6-dimethyl-2-oxo-1-(4-methylphenyl)-1,2-dihydropyridine-3-carboxamide], in series [1], the “% CB2R Agonist Response” value is on record as 0%.

Take `Cc1cc(C)n(C(=O)CC#N)n1` [Compound 3]: the melting point lay in the range of 119 to 121 °C. Also, the pKi at CB2 was 9.22.

With `Cc1cc(C)n(-c2ccccc2)c(=O)c1C(=O)NC1CCCCCC1` [Compound 8b, N-cycloheptyl-4,6-dimethyl-2-oxo-1-phenyl-1,2-dihydropyridine-3-carboxamide], the melting point was 138 to 140 °C. The pIC50 in the series with HL-60 cells is below 4.00. In addition, the pIC50 with HepG2 cells was below 3.70.

Regarding `Cc1cc(C)n(-c2ccccc2)c(=O)c1C(=O)Nc1nc2ccccc2s1` [Compound 7a, N-(benzo[d]thiazol-2-yl)-4,6-dimethyl-2-oxo-1-phenyl-1,2-dihydropyridine-3-carboxamide], the melting point was in the range of 163 to 165 °C.

As to `O=C(NC1CCCCCC1)c1cn2c3c(cccc3c1=O)OCC2c1ccccc1` (stereo not drawn) [Compound 5], the negative logarithm of the Ki (pKi) at CB2 was 9.09.

In the case of `Cc1cc(C)n(-c2ccccc2)c(=O)c1C(=O)NC1CCCCC1` [Compound 8a, N-cyclohexyl-4,6-dimethyl-2-oxo-1-phenyl-1,2-dihydropyridine-3-carboxamide], the melting point was 139 to 140 °C. The “% CB2R Agonist Response” value in series [1] is given as 12%.
